Data: patent US9040067B2, “Disinfecting and antimicrobial compositions” (priority 2005, dated 2015)

Tests used:
[1] = system: E. coli 0157;H7; experiment: MIC/MLC in brain heart infusion broth; type: cell-based; further: key: + = growth (inactive); − = no growth (active)
Protocol: (§1) The tests were carried out in 10 ml of brain heart infusion broth. The esters were serially diluted in brain heart infusion broth of samples of, 0.1, 0.2, 0.3, 0.4 and 0.5/10 ml and challenged with 0.1 ml of 1/100 dilution of 24 hr old brain heart infusion bacterial culture. The lowest concentration determined the minimum inhibitory concentration (MIC). The samples were observed after 48 hrs at 37° C. A loopful from tubes without growth were plated on BHI agar plates and observed for growth for 24 to 48 hrs at 37° C. The samples with the lowest concentration of the ester without bacterial growth on the plates represented the minimum lethal concentration (MLC).
(§2) A series of samples of (a) methyl lactate, (b) ethyl lactate and (c) butyl lactate, alone, and in admixture with varying amounts of decyl lactate and sodium dodecyl sulfates were used to test minimum inhibitory activity (MIC) by the method described in Example II, against the cultures of E. coli 0157 H7, Listeria monocytogenes, Staphylococcus aureus, Salmonella typhi, and Pseudomonas aeruginosa.

[2] = system: Listeria monocytogenes; experiment: MIC/MLC in brain heart infusion broth; type: cell-based
Protocol: as §1, §2

[3] = system: Pseudomonas aeruginosa; experiment: MIC/MLC in brain heart infusion broth; type: cell-based; conditions: for MIC, Concentration of Lactic Esters 0.5%: 0.5% ester; for MIC, Concentration of Lactic Esters 1%: 1% ester; for MIC, Concentration of Lactic Esters 2%: 2% ester; for MIC, Concentration of Lactic Esters 3%: 3% ester; for MIC, Concentration of Lactic Esters 4%: 4% ester; for MIC, Concentration of Lactic Esters 5%: 5% ester; on MIC, Concentration of Lactic Esters 0.5%: key: + = growth (inactive); − = no growth (active); on MIC, Concentration of Lactic Esters 1%: key: + = growth (inactive); − = no growth (active); on MIC, Concentration of Lactic Esters 2%: key: + = growth (inactive); − = no growth (active); on MIC, Concentration of Lactic Esters 3%: key: + = growth (inactive); − = no growth (active); on MIC, Concentration of Lactic Esters 4%: key: + = growth (inactive); − = no growth (active); on MIC, Concentration of Lactic Esters 5%: key: + = growth (inactive); − = no growth (active)
Protocol: as §1, §2

[4] = system: Staphylococcus aureus; experiment: MIC/MLC in brain heart infusion broth; type: cell-based
Protocol: as §1, with “The esters were serially diluted in brain heart infusion broth of samples of, 0.1, 0.2, 0.3, 0.4 and 0.5/10 ml and challenged with 0.1 ml of 1/100 dilution of 24 hr old brain heart infusion bacterial culture.” left out
as §2

[5] = system: Salmonella typhimurium; experiment: MIC/MLC in brain heart infusion broth; type: cell-based
Protocol: as §1

[6] = system: Salmonella typhi; experiment: MIC in brain heart infusion broth; type: cell-based; conditions: Table 4; further: key: + = growth (inactive); − = no growth (active)
Protocol: as §1, §2

[7] = system: Saccharomyces cerevisiae; experiment: MIC and MLC against yeast in Sab. broth; type: cell-based; conditions: for Lethal (MLC) Concentration 1% / Inhibitory (MIC) Concentration 1%: 1% ester; for Lethal (MLC) Concentration 1.5% / Inhibitory (MIC) Concentration 1.5%: 1.5% ester; for Lethal (MLC) Concentration 2% / Inhibitory (MIC) Concentration 2%: 2% ester; for Lethal (MLC) Concentration 3% / Inhibitory (MIC) Concentration 3%: 3% ester; for Lethal (MLC) Concentration 4% / Inhibitory (MIC) Concentration 4%: 4% ester; on Lethal (MLC) Concentration 1%: key: + = growth (inactive); − = no growth (active); on Lethal (MLC) Concentration 1.5%: key: + = growth (inactive); − = no growth (active); on Lethal (MLC) Concentration 2%: key: + = growth (inactive); − = no growth (active); on Lethal (MLC) Concentration 3%: key: + = growth (inactive); − = no growth (active); on Lethal (MLC) Concentration 4%: key: + = growth (inactive); − = no growth (active)
Protocol: A 0.1 ml of 1/100 dilution of 48 hr old culture of S. cerevisiae was used as inoculum. The test was performed using Sab. broth. The tubes were incubated at room temperature 25° C. The test was read after 48 hrs.

[8] = Solubilization of dehydroacetic acid by ethyl lactate; type: physicochemical; conditions: 5.0 parts of dehydroacetic acid in 100 ml of ethyl lactate, room temperature
[9] = 1%, second MLC line of organism
[10] = 2%, second MLC line of organism
[11] = 3%, second MLC line of organism
[12] = 4%, second MLC line of organism
[13] = 5%, second MLC line of organism

CCOC(=O)C(C)O (centres unmarked) [Ethyl lactate, ethyl lactate]
MLC, Concentration of Ethyl lactate 0.5% ([1]; first MLC line of organism): + | MLC, Concentration of Ethyl lactate 0.5% ([1]; second MLC line of organism): + | MIC, growth at 1% ([1]; 1%, Table 4): + | MLC, Concentration of Ethyl lactate 1% ([1]; 1%, first MLC line of organism): + | MLC, Concentration of Ethyl lactate 1% [1, 9]: + | MIC, growth at 2% ([1]; 2%, Table 4): + | MLC, Concentration of Ethyl lactate 2% ([1]; 2%, first MLC line of organism): − | MLC, Concentration of Ethyl lactate 2% [1, 10]: + | MIC, growth at 3% ([1]; 3%, Table 4): + | MLC, Concentration of Ethyl lactate 3% ([1]; 3%, first MLC line of organism): − | MLC, Concentration of Ethyl lactate 3% [1, 11]: − | MIC, growth at 4% ([1]; 4%, Table 4): − | MLC, Concentration of Ethyl lactate 4% ([1]; 4%, first MLC line of organism): − | MLC, Concentration of Ethyl lactate 4% [1, 12]: − | MIC, growth at 5% ([1]; 5%, Table 4): − | MLC, Concentration of Ethyl lactate 5% ([1]; 5%, first MLC line of organism): − | MLC, Concentration of Ethyl lactate 5% [1, 13]: − | MLC, Concentration of Ethyl lactate 0.5% ([2]; first MLC line of organism): + | MLC, Concentration of Ethyl lactate 0.5% ([2]; second MLC line of organism): + | MIC, growth at 1% ([2]; 1%, Table 4): + | MLC, Concentration of Ethyl lactate 1% ([2]; 1%, first MLC line of organism): + | MLC, Concentration of Ethyl lactate 1% [2, 9]: + | MIC, growth at 2% ([2]; 2%, Table 4): + | MLC, Concentration of Ethyl lactate 2% ([2]; 2%, first MLC line of organism): + | MLC, Concentration of Ethyl lactate 2% [2, 10]: + | MIC, growth at 3% ([2]; 3%, Table 4): + | MLC, Concentration of Ethyl lactate 3% ([2]; 3%, first MLC line of organism): + | MLC, Concentration of Ethyl lactate 3% [2, 11]: + | MIC, growth at 4% ([2]; 4%, Table 4): + | MLC, Concentration of Ethyl lactate 4% ([2]; 4%, first MLC line of organism): + | MLC, Concentration of Ethyl lactate 4% [2, 12]: + | MIC, growth at 5% ([2]; 5%, Table 4): + | MLC, Concentration of Ethyl lactate 5% ([2]; 5%, first MLC line of organism): + | MLC, Concentration of Ethyl lactate 5% [2, 13]: + | MIC, Concentration of Lactic Esters 0.5% ([3]; SDS 0.0 ppm): + | MIC, Concentration of Lactic Esters 0.5% ([3]; SDS 50 ppm): − | MIC, Concentration of Lactic Esters 0.5% ([3]; SDS 100 ppm): − | MIC, Concentration of Lactic Esters 0.5% ([3]; SDS 200 ppm): − | MLC, Concentration of Ethyl lactate 0.5% ([3]; first MLC line of organism): + | MLC, Concentration of Ethyl lactate 0.5% ([3]; second MLC line of organism): + | MIC, Concentration of Lactic Esters 1% ([3]; SDS 0.0 ppm): + | MIC, Concentration of Lactic Esters 1% ([3]; SDS 50 ppm): − | MIC, Concentration of Lactic Esters 1% ([3]; SDS 100 ppm): − | MIC, Concentration of Lactic Esters 1% ([3]; SDS 200 ppm): − | MLC, Concentration of Ethyl lactate 1% ([3]; first MLC line of organism): + | MLC, Concentration of Ethyl lactate 1% ([3]; second MLC line of organism): + | MIC, Concentration of Lactic Esters 2% ([3]; SDS 0.0 ppm): − | MIC, Concentration of Lactic Esters 2% ([3]; SDS 50 ppm): − | MIC, Concentration of Lactic Esters 2% ([3]; SDS 100 ppm): − | MIC, Concentration of Lactic Esters 2% ([3]; SDS 200 ppm): − | MLC, Concentration of Ethyl lactate 2% ([3]; first MLC line of organism): − | MLC, Concentration of Ethyl lactate 2% ([3]; second MLC line of organism): + | MIC, Concentration of Lactic Esters 3% ([3]; SDS 0.0 ppm): − | MIC, Concentration of Lactic Esters 3% ([3]; SDS 50 ppm): − | MIC, Concentration of Lactic Esters 3% ([3]; SDS 100 ppm): − | MIC, Concentration of Lactic Esters 3% ([3]; SDS 200 ppm): − | MLC, Concentration of Ethyl lactate 3% ([3]; first MLC line of organism): − | MLC, Concentration of Ethyl lactate 3% ([3]; second MLC line of organism): + | MIC, Concentration of Lactic Esters 4% ([3]; SDS 0.0 ppm): − | MIC, Concentration of Lactic Esters 4% ([3]; SDS 50 ppm): − | MIC, Concentration of Lactic Esters 4% ([3]; SDS 100 ppm): − | MIC, Concentration of Lactic Esters 4% ([3]; SDS 200 ppm): − | MLC, Concentration of Ethyl lactate 4% ([3]; first MLC line of organism): − | MLC, Concentration of Ethyl lactate 4% ([3]; second MLC line of organism): − | MIC, Concentration of Lactic Esters 5% ([3]; SDS 0.0 ppm): − | MIC, Concentration of Lactic Esters 5% ([3]; SDS 50 ppm): − | MIC, Concentration of Lactic Esters 5% ([3]; SDS 100 ppm): − | MIC, Concentration of Lactic Esters 5% ([3]; SDS 200 ppm): − | MLC, Concentration of Ethyl lactate 5% ([3]; first MLC line of organism): − | MLC, Concentration of Ethyl lactate 5% ([3]; second MLC line of organism): − | MLC, Concentration of Ethyl lactate 0.5% ([4]; first MLC line of organism): + | MLC, Concentration of Ethyl lactate 0.5% ([4]; second MLC line of organism): + | MIC, growth at 1% ([4]; 1%, Table 4): + | MLC, Concentration of Ethyl lactate 1% ([4]; 1%, first MLC line of organism): + | MLC, Concentration of Ethyl lactate 1% [4, 9]: + | MIC, growth at 2% ([4]; 2%, Table 4): + | MLC, Concentration of Ethyl lactate 2% ([4]; 2%, first MLC line of organism): + | MLC, Concentration of Ethyl lactate 2% [4, 10]: + | MIC, growth at 3% ([4]; 3%, Table 4): + | MLC, Concentration of Ethyl lactate 3% ([4]; 3%, first MLC line of organism): + | MLC, Concentration of Ethyl lactate 3% [4, 11]: + | MIC, growth at 4% ([4]; 4%, Table 4): + | MLC, Concentration of Ethyl lactate 4% ([4]; 4%, first MLC line of organism): + | MLC, Concentration of Ethyl lactate 4% [4, 12]: + | MIC, growth at 5% ([4]; 5%, Table 4): + | MLC, Concentration of Ethyl lactate 5% ([4]; 5%, first MLC line of organism): − | MLC, Concentration of Ethyl lactate 5% [4, 13]: + | MLC, Concentration of Ethyl lactate 0.5% ([5]; first MLC line of organism): + | MLC, Concentration of Ethyl lactate 0.5% ([5]; second MLC line of organism): + | MLC, Concentration of Ethyl lactate 1% ([5]; first MLC line of organism): + | MLC, Concentration of Ethyl lactate 1% ([5]; second MLC line of organism): + | MLC, Concentration of Ethyl lactate 2% ([5]; first MLC line of organism): + | MLC, Concentration of Ethyl lactate 2% ([5]; second MLC line of organism): + | MLC, Concentration of Ethyl lactate 3% ([5]; first MLC line of organism): + | MLC, Concentration of Ethyl lactate 3% ([5]; second MLC line of organism): + | MLC, Concentration of Ethyl lactate 4% ([5]; first MLC line of organism): − | MLC, Concentration of Ethyl lactate 4% ([5]; second MLC line of organism): + | MLC, Concentration of Ethyl lactate 5% ([5]; first MLC line of organism): − | MLC, Concentration of Ethyl lactate 5% ([5]; second MLC line of organism): + | MIC, growth at 1% ([6]; 1%): + | MIC, growth at 2% ([6]; 2%): + | MIC, growth at 3% ([6]; 3%): + | MIC, growth at 4% ([6]; 4%): − | MIC, growth at 5% ([6]; 5%): − | Lethal (MLC) Concentration 1% [7]: + | Inhibitory (MIC) Concentration 1% ([7]; 48 hrs, 25° C): + | Inhibitory (MIC) Concentration 1% ([7]; Sodium lauryl sulfate 200 ppm): + | Lethal (MLC) Concentration 1% ([7]; Sodium lauryl sulfate 200 ppm): + | Lethal (MLC) Concentration 1.5% [7]: + | Inhibitory (MIC) Concentration 1.5% ([7]; 48 hrs, 25° C): − | Inhibitory (MIC) Concentration 1.5% ([7]; Sodium lauryl sulfate 200 ppm): − | Lethal (MLC) Concentration 1.5% ([7]; Sodium lauryl sulfate 200 ppm): + | Lethal (MLC) Concentration 2% [7]: − | Inhibitory (MIC) Concentration 2% ([7]; 48 hrs, 25° C): − | Inhibitory (MIC) Concentration 2% ([7]; Sodium lauryl sulfate 200 ppm): − | Lethal (MLC) Concentration 2% ([7]; Sodium lauryl sulfate 200 ppm): − | Lethal (MLC) Concentration 3% [7]: − | Inhibitory (MIC) Concentration 3% ([7]; 48 hrs, 25° C): − | Inhibitory (MIC) Concentration 3% ([7]; Sodium lauryl sulfate 200 ppm): − | Lethal (MLC) Concentration 3% ([7]; Sodium lauryl sulfate 200 ppm): − | Lethal (MLC) Concentration 4% [7]: − | Inhibitory (MIC) Concentration 4% ([7]; 48 hrs, 25° C): − | Inhibitory (MIC) Concentration 4% ([7]; Sodium lauryl sulfate 200 ppm): − | Lethal (MLC) Concentration 4% ([7]; Sodium lauryl sulfate 200 ppm): −

CC(=O)C1C(=O)C=C(C)OC1=O (centres unmarked) [dehydroacetic acid]
solubility in ethyl lactate (appearance of solution) [8]: clear solution
